Laboratory results: patent US11352349B2, “Type II topoisomerase inhibitors and methods of making and using thereof” (Ohio State Innovation Foundation, priority 2017, dated 2022)
In brackets after ≈: the same amount, converted by molar mass. Read-outs that look alike come from different tables or passages of the source.

Legend:
[1] = system: S. aureus ATCC 29213; assay: MIC by broth microdilution (CLSI), quality control strain S. aureus ATCC 29213; format: cell-based, Staphylococcus aureus; details: multiple values when multiple MIC assays were conducted; for MIC: Staphylococcus aureus, ATCC29213, S. aureus ATCC 29213; for MIC 29213: S. aureus ATCC 29213
Protocol: Minimum inhibitory concentrations were determined using the quality control strain S. aureus ATCC 29213 (Table 1) by the broth microdilution method according to guidelines of the Clinical and Laboratory Standards Institute (CLSI) (Cockerill, F. R.; et al., 2012, Methods for dilution antimicrobial susceptibility tests for bacteria that grow aerobically; approved standard-ninth edition. MA07-A9. Clinical and Laboratory Standard Institute, Wayne, Pa.). […] Published quality control ranges for gepotidacin and ciprofloxacin were used to validate each assay. MICs for selected compounds were also determined using a USA 300 strain of MRSA (Hidron, et al., Lancet Infect. Dis. 2009, 9:384-392). Vancomycin was used as an additional control.

[2] = biological target: T1, human topo II (Homo sapiens, UniProt P11388); assay: Topoisomerase II (alpha) decatenation assay; format: biochemical; details: activity remaining at 100 μM compound; read-out: hTopoll (% activity remaining at 100 μM)
T1 construct: purchased Inspiralis, Norwich, UK
T1 sequence (P11388 whole entry): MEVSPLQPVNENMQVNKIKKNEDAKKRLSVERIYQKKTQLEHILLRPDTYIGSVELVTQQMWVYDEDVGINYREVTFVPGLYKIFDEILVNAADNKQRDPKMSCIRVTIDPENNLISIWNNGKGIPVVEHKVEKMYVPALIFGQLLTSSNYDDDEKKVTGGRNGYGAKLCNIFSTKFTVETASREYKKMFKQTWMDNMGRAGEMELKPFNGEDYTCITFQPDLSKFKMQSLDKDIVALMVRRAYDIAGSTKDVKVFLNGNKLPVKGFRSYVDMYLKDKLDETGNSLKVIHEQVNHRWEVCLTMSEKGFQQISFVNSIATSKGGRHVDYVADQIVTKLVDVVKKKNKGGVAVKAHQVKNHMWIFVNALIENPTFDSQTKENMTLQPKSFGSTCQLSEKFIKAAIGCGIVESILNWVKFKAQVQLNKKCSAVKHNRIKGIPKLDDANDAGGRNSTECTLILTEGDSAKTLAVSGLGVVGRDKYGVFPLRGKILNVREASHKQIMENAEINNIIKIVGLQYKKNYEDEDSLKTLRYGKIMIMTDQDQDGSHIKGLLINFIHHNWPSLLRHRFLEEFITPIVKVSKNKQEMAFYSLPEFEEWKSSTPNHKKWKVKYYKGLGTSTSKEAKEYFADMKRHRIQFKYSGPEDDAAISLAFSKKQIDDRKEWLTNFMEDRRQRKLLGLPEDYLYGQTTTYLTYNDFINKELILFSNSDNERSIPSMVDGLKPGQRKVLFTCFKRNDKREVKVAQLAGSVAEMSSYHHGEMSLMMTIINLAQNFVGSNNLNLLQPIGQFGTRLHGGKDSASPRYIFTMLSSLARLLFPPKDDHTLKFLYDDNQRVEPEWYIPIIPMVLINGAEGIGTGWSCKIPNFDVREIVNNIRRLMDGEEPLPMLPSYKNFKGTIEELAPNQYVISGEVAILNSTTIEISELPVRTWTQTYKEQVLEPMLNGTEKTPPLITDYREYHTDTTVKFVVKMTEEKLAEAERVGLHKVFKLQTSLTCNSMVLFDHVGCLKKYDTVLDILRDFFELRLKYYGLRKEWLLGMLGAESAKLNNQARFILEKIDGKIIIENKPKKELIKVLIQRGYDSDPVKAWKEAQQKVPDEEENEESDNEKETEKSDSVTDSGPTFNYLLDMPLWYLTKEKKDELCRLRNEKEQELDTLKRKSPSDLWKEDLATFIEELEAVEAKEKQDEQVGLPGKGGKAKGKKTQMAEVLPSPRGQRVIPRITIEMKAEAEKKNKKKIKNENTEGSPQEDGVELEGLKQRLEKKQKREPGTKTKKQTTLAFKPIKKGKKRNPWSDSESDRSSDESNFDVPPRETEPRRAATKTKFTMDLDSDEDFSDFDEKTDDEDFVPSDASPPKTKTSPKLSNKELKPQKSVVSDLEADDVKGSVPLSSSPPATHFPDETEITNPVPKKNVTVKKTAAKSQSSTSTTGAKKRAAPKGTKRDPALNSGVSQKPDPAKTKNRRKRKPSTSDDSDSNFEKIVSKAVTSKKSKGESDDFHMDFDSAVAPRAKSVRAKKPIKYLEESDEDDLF
Protocol: (§1) A subset of analogs was used to assess the degree of inhibition of DNA gyrase or TopoIV (Inspiralis, Norwich, UK), both to establish the mechanism of action and to evaluate the relative balance of inhibitory activities (Table 1). A subset of compound was also assayed to determine the degree of inhibition of human topoisomerase II (Inspiralis, Norwich, UK)).
(§2) In all experiments, the activity of the enzymes was determined prior to the testing of the compounds and 1 unit (U) was defined as the amount of enzyme required to just fully supercoil, relax or decatenate the substrate (see explanation of gels). This amount of enzyme was initially used in determination of control inhibitor activity. These experiments were performed in duplicate.
(§3) For all assays the final DMSO concentration was 1%. 10 mM stocks of the compounds were serially diluted into 10% DMSO at 1 mM, 0.5 mM, 0.25 mM, 0.1 mM, 0.05 mM, 0.01 mM, 0.005 mM, 0.001 mM, 0.0005 mM, 0.0001 mM and 0.00005 mM. 3.0 μl of each dilution was added to a 30 μl assay.
(§4) Bands were visualised by ethidium staining for 20 minutes and destaining for 20 minutes. Gels were scanned using documentation equipment (GeneGenius, Syngene, Cambridge, UK) and % inhibition levels (where appropriate) were obtained with gel scanning software. (GeneTools, Syngene, Cambridge, UK)
Topoisomerase II (Alpha) Decatenation Assay
Each reaction was stopped by the addition of 30 μl chloroform/iso-amyl alcohol (26:1) and 30 μl Stop Dye, before being loaded on a 1.0% TAE gel run at 90V for 2 hours.

[3] = biological target: T2, Staphylococcus aureus Topo IV (Staphylococcus aureus, UniProt P0C1S7+P0C1U9); assay: Staphylococcus aureus Topo IV decatenation assay; format: biochemical
T2 construct: purchased Inspiralis, Norwich, UK
T2 sequence (P0C1S7 whole entry): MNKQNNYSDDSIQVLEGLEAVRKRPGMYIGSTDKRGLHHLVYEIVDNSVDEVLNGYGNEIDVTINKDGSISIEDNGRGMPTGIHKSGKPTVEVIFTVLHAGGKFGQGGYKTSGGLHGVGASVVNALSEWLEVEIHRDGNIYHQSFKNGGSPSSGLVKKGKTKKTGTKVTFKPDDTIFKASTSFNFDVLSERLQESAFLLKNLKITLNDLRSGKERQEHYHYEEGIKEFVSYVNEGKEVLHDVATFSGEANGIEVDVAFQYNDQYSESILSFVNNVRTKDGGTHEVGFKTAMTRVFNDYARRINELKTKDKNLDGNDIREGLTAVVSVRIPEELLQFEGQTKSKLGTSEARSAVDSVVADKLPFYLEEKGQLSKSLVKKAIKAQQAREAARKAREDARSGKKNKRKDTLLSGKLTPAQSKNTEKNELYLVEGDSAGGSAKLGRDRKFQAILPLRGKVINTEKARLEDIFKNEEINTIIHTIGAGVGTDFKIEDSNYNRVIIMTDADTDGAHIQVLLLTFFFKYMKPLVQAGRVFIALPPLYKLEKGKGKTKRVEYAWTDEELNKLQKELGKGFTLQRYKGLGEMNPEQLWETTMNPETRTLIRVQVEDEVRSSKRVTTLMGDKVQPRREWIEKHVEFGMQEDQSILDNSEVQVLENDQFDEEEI
T2 sequence (P0C1U9 whole entry): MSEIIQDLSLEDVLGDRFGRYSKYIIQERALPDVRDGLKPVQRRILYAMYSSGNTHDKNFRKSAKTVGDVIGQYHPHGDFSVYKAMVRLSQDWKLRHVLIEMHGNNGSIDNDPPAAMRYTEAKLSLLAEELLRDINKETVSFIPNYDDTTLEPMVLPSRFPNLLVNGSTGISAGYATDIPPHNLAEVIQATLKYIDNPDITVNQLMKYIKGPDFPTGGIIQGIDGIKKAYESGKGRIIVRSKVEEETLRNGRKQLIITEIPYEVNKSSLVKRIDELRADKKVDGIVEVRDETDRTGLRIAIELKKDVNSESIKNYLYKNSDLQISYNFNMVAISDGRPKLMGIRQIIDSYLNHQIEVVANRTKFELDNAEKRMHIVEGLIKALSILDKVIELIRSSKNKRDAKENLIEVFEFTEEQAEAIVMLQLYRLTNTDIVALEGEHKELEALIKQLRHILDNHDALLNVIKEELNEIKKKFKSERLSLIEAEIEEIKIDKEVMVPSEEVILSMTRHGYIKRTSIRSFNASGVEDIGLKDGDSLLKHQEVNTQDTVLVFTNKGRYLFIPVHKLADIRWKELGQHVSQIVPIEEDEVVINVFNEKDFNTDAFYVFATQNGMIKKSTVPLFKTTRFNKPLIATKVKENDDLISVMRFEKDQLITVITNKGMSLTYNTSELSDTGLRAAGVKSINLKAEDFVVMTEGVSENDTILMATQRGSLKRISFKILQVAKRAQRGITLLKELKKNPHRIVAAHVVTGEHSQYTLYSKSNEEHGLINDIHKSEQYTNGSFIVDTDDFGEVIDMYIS
Protocol: as §1, §2, §3, §4
Staphylococcus aureus Topo IV Decatenation Assay
1 U of Topo IV was incubated with 200 ng kDNA DNA in a 30 μl reaction at 37° C. for 30 minutes under the following conditions: 50 mM Tris.HCl (7.5), 5 mM MgCl2, 5 mM DTT, 1.5 mM ATP, 350 mM potassium glutamate and 0.05 mg/ml BSA.
Each reaction was stopped by the addition of 30 μl chloroform/iso-amyl alcohol (26:1) and 30 μl Stop Dye, before being loaded on a 1.0% TAE gel run at 70V for 2 hours.

[4] = biological target: T3, Staphylococcus aureus gyrase (Staphylococcus aureus, UniProt P0A0K8+P20831); assay: Staphylococcus aureus gyrase supercoiling assay; format: biochemical; details: S. aureus DNA gyrase supercoiling; read-out: Gyrase IC50
T3 construct: purchased Inspiralis, Norwich, UK
T3 sequence (P20831 whole entry): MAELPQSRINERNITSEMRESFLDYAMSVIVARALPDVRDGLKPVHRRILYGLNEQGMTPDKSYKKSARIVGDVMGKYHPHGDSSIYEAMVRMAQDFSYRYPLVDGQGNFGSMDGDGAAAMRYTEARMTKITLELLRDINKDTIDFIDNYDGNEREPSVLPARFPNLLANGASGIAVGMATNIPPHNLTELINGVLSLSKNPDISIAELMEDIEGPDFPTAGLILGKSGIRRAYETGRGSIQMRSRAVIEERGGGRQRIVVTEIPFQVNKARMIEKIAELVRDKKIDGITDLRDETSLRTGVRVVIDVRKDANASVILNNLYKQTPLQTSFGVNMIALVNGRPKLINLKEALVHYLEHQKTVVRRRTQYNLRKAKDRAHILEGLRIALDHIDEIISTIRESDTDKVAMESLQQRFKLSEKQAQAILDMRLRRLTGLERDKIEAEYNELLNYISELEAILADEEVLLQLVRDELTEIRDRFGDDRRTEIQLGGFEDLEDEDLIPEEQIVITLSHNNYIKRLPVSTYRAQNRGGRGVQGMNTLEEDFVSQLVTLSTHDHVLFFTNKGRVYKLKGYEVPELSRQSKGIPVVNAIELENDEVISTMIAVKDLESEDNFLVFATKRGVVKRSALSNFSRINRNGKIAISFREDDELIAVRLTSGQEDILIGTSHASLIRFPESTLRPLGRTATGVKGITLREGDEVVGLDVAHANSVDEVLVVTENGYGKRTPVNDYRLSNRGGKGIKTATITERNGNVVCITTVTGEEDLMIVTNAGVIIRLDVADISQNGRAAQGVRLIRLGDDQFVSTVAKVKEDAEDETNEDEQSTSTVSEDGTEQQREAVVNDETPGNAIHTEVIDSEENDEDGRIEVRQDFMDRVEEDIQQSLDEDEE
T3 sequence (P0A0K8 whole entry): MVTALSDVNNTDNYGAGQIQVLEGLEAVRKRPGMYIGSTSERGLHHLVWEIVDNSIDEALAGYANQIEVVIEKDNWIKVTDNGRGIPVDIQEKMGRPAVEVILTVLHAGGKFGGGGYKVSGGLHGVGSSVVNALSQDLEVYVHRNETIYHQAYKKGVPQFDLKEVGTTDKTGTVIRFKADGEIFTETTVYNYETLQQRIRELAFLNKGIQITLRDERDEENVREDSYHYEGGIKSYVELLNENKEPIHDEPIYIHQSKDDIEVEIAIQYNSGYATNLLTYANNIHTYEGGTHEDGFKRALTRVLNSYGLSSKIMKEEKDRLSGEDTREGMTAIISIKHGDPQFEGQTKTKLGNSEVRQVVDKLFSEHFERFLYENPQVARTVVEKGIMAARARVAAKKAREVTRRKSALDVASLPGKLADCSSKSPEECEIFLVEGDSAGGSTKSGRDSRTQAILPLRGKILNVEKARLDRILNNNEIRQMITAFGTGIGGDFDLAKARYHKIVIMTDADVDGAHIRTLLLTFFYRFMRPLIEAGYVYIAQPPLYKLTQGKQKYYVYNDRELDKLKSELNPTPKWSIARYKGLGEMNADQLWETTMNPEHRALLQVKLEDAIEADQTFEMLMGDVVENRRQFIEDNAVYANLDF
Protocol: as §1, §2, §3, §4
Staphylococcus aureus gyrase supercoiling
1 U of DNA gyrase was incubated with 0.5 μg of relaxed pBR322 DNA in a 30 μl reaction at 37° C. for 30 minutes under the following conditions: 40 mM HEPES. KOH (pH 7.6), 10 mM magnesium acetate, 10 mM DTT, 2 mM ATP, 500 mM potassium glutamate and 0.05 mg/ml BSA.
Each reaction was stopped by the addition of 30 μl chloroform/iso-amyl alcohol (26:1) and 30 μl Stop Dye (40% sucrose (w/v), 100 mM Tris.HCl (pH 7.5), 10 mM EDTA, 0.5 μg/ml bromophenol blue), before being loaded on a 1.0% TAE gel run at 70V for 2 hours.

[5] = system: USA 300 strain of MRSA; assay: MIC by broth microdilution, USA 300 strain of MRSA; format: cell-based, Staphylococcus aureus; details: Staphylococcus aureus, multiple values when multiple MIC assays were conducted, read-out: MIC USA300
Protocol: Minimum inhibitory concentrations were determined using the quality control strain S. aureus ATCC 29213 (Table 1) by the broth microdilution method according to guidelines of the Clinical and Laboratory Standards Institute (CLSI) (Cockerill, F. R.; et al., 2012, Methods for dilution antimicrobial susceptibility tests for bacteria that grow aerobically; approved standard-ninth edition. MA07-A9. Clinical and Laboratory Standard Institute, Wayne, Pa.). […] MICs for selected compounds were also determined using a USA 300 strain of MRSA (Hidron, et al., Lancet Infect. Dis. 2009, 9:384-392). Vancomycin was used as an additional control.

[6] = S. aureus Topo IV decatenation, read-out: TopolV Decat IC50

Work on `COc1ccc2ncc(=O)n(CC[C@H]3OC[C@H](NCc4ccc5c(c4)OCCO5)CO3)c2c1` [AB-0002, 1-(2-(5-(((2,3-dihydrobenzo[b][1,4]dioxin-6-yl)methyl)amino)-1,3-trans-dioxan-2-yl)ethyl)-7-methoxyquinoxalin-2(1H)-one] yielded an MIC [1] of 4 µg/mL (≈ 8.82 µM), a remaining activity at 100 µM [2] of 97.5% and an IC50 [3, 6] greater than 100000 nM. The IC50 [4] was 2010 nM.

With `COc1ccc2nccc(/C=C/[C@H]3OC[C@H](NCc4ccc5c(c4)OCCO5)CO3)c2c1` [AB-0010, N-((2,3-dihydrobenzo[b][1,4]dioxin-6-yl)methyl)-2-((E)-2-(6-methoxyquinolin-4-yl)vinyl)-trans-1,3-dioxan-5-amine] the “MIC 29213” value [1] was 2 µg/mL (≈ 4.6 µM), the MIC [1] was 1 µg/mL (≈ 2.3 µM) and the MIC [5] was 1 µg/mL (≈ 2.3 µM).

Molecule `COc1ccc2nccc(CC[C@H]3OC[C@H](NCc4ccc5c(c4)OCCO5)CO3)c2c1` [AB-0011, N-((2,3-dihydrobenzo[b][1,4]dioxin-6-yl)methyl)-2-(2-(6-methoxyquinolin-4-yl)ethyl)-trans-1,3-dioxan-5-amine] has an MIC [5] of 0.5 µg/mL (≈ 1.15 µM), a remaining activity at 100 µM [2] of 84.2% and an IC50 [3] of 13800 nM. The IC50 [4] was 100 nM.

Molecule `COc1ccc2nccc(CC[C@H]3OC[C@H](NCc4ccc(Cl)c(Cl)c4)CO3)c2c1` [AB-0012, N-(3,4-dichlorobenzyl)-2-(2-(6-methoxyquinolin-4-yl)ethyl)-trans-1,3-dioxan-5-amine] has an MIC [5] of 0.5 µg/mL (≈ 1.12 µM), a remaining activity at 100 µM [2] of 93.2% and an IC50 [3, 6] greater than 100000 nM. It also gave an IC50 [4] of 280 nM.

For `COc1ccc2nccc(CC[C@H]3OC[C@H](NCc4cc5c(cn4)OCCO5)CO3)c2c1` [AB-0013, N-((2,3-dihydro-[1,4]dioxino[2,3-c]pyridin-7-yl)methyl)-2-(2-(6-methoxyquinolin-4-yl)ethyl)-trans-1,3-dioxan-5-amine], the “MIC 29213” value [1] was 2 µg/mL (≈ 4.57 µM), the MIC [1] was 1 µg/mL (≈ 2.29 µM) and the MIC [5] was 2 µg/mL (≈ 4.57 µM). It also gave a remaining activity at 100 µM [2] of 95.1%, an IC50 [3, 6] of 50000 nM and an IC50 [4] of 360 nM.

For `COc1ccc2nccc(CC[C@H]3OC[C@H](NCc4cc5c(cn4)OCCC5)CO3)c2c1` [AB-0014, N-((3,4-dihydro-2H-pyrano[2,3-c]pyridin-6-yl)methyl)-2-(2-(6-methoxyquinolin-4-yl)ethyl)-trans-1,3-dioxan-5-amine], the MIC [1] was 1 µg/mL (≈ 2.3 µM), the MIC [5] was 2 µg/mL (≈ 4.59 µM) and the remaining activity at 100 µM [2] was 93.8%. For the same molecule, the IC50 [3, 6] was 25000 to 50000 nM and the IC50 [4] was 330 nM.

Molecule `COc1ccc2ncc(F)c(CC[C@H]3OC[C@H](NCc4ccc(Cl)c(Cl)c4)CO3)c2n1` [AB-0017, N-(3,4-dichlorobenzyl)-2-(2-(3-fluoro-6-methoxy-1,5-naphthyridin-4-yl)ethyl)-trans-1,3-dioxan-5-amine] has an MIC [1] of 0.25 µg/mL (≈ 0.536 µM) and an MIC [5] of 0.125 µg/mL (≈ 0.268 µM).

For `COc1ccc2ncc(F)c(C(O)C[C@H]3OC[C@H](NCc4ccc(Cl)c(Cl)c4)CO3)c2c1` (stereo partly drawn) [AB-0019, 2-(5-((3,4-dichlorobenzyl)amino)-trans-1,3-dioxan-2-yl)-1-(3-fluoro-6-methoxyquinolin-4-yl)ethan-1-ol], the MIC [1] was no more than 0.25 µg/mL and the MIC [5] was 0.5 µg/mL (≈ 1.04 µM).

In the case of `COc1ccc2nccc(CC[C@H]3OC[C@H](NCc4ccc(F)c(Cl)c4)CO3)c2c1` [AB-0023, N-(3-chloro-4-fluorobenzyl)-2-(2-(6-methoxyquinolin-4-yl)ethyl)-trans-1,3-dioxan-5-amine], the MIC [1] is reported as 8 µg/mL (≈ 18.6 µM), the remaining activity at 100 µM [2] is reported as 97.7% and the IC50 [3, 6] is reported as greater than 100000 nM. It also gave an IC50 [4] of 2100 nM.

With `COc1ccc(CN[C@H]2CO[C@H](CCc3ccnc4ccc(OC)cc34)OC2)cc1` [AB-0031, N-(4-methoxybenzyl)-2-(2-(6-methoxyquinolin-4-yl)ethyl)-trans-1,3-dioxan-5-amine] the MIC [1] was 4 µg/mL (≈ 9.79 µM), the remaining activity at 100 µM [2] was 98.7% and the IC50 [3, 6] was greater than 100000 nM. The IC50 [4] was 1530 nM.
